# According to PMC10994248 (The Oncologist, 2024):
# Test: Phase I safety and tolerability (TEAEs, DLTs, MTD, DRDE) in patients with advanced solid tumors
# Assay type: in vivo, human
# Details: for DLT: Hypertension / DLT: Palmar-plantar erythrodysesthesia syndrome / DLT: Skin and subcutaneous tissue disorders / DLT: Vascular disorders / Subjects who had a dose-limiting toxicity: dose-determining set
# Description: This 2-part, open-label, phase I study was conducted at the MD Anderson Cancer Center in Texas, USA and the Cancer Hospital Chinese Academy of Medical Sciences in Beijing, China. […] This was followed by a dose-expansion phase, the primary objective of which was to confirm the safety and tolerability of tinengotinib at the DRDE. Secondary objectives were to characterize the pharmacokinetics and preliminary efficacy of tinengotinib.
# Dose escalation was guided by an adaptive Bayesian logistic regression model using the Escalation with Overdose Control principle.[6],[7] Study data (including DLTs, grade 2 adverse events during cycle 1, and pharmacokinetic data) were reviewed by the sponsor and trial investigators at each dose level and used to guide dose-escalation decisions. MTD was based on the Bayesian model, but with consideration given to available safety and tolerability data. DRDE was based on an evaluation of all available data (safety, clinical activity, and pharmacokinetics).
# After determination of the DRDE, the dose-expansion phase was opened to further characterize safety and pharmacokinetics, and to assess preliminary efficacy.
# Routine safety assessments of adverse events, laboratory tests (hematology, coagulation, biochemistry, and urinalysis), vital signs, and 12-lead electrocardiograms were performed. Adverse events were graded according to the National Cancer Institute Common Terminology Criteria for Adverse Events (CTCAE), version 5.0.
substance,measurement,setting,value
tinengotinib,DLT: Hypertension,1 mg (n=1),0 No. (%)
same,DLT: Palmar-plantar erythrodysesthesia syndrome,1 mg (n=1),0 No. (%)
same,DLT: Skin and subcutaneous tissue disorders,1 mg (n=1),0 No. (%)
same,DLT: Vascular disorders,1 mg (n=1),0 No. (%)
same,Subjects who had a dose-limiting toxicity,1 mg (n=1),0 No. (%)
same,DLT: Hypertension,3 mg (n=1),0 No. (%)
same,DLT: Palmar-plantar erythrodysesthesia syndrome,3 mg (n=1),0 No. (%)
same,DLT: Skin and subcutaneous tissue disorders,3 mg (n=1),0 No. (%)
same,DLT: Vascular disorders,3 mg (n=1),0 No. (%)
same,Subjects who had a dose-limiting toxicity,3 mg (n=1),0 No. (%)
same,DLT: Hypertension,5 mg (n=4),0 No. (%)
same,DLT: Palmar-plantar erythrodysesthesia syndrome,5 mg (n=4),0 No. (%)
same,DLT: Skin and subcutaneous tissue disorders,5 mg (n=4),0 No. (%)
same,DLT: Vascular disorders,5 mg (n=4),0 No. (%)
same,Subjects who had a dose-limiting toxicity,5 mg (n=4),0 No. (%)
same,DLT: Hypertension,8 mg (n=9),0 No. (%)
same,DLT: Palmar-plantar erythrodysesthesia syndrome,8 mg (n=9),1 (11.1) No. (%)
same,DLT: Skin and subcutaneous tissue disorders,8 mg (n=9),1 (11.1) No. (%)
same,DLT: Vascular disorders,8 mg (n=9),0 No. (%)
same,Subjects who had a dose-limiting toxicity,8 mg (n=9),1 (11.1) No. (%)
same,DLT: Hypertension,10 mg (n=3),0 No. (%)
same,DLT: Palmar-plantar erythrodysesthesia syndrome,10 mg (n=3),0 No. (%)
same,DLT: Skin and subcutaneous tissue disorders,10 mg (n=3),0 No. (%)
same,DLT: Vascular disorders,10 mg (n=3),0 No. (%)
same,Subjects who had a dose-limiting toxicity,10 mg (n=3),0 No. (%)
same,DLT: Hypertension,12 mg (n=9),0 No. (%)
same,DLT: Palmar-plantar erythrodysesthesia syndrome,12 mg (n=9),0 No. (%)
same,DLT: Skin and subcutaneous tissue disorders,12 mg (n=9),0 No. (%)
same,DLT: Vascular disorders,12 mg (n=9),0 No. (%)
same,Subjects who had a dose-limiting toxicity,12 mg (n=9),0 No. (%)
same,DLTs during the dose-expansion phase,12 mg dose,no other DLTs
same,DLT: Hypertension,15 mg (n=5),2 (40.0) No. (%)
same,DLT: Palmar-plantar erythrodysesthesia syndrome,15 mg (n=5),0 No. (%)
same,DLT: Skin and subcutaneous tissue disorders,15 mg (n=5),0 No. (%)
same,DLT: Vascular disorders,15 mg (n=5),2 (40.0) No. (%)
same,Subjects who had a dose-limiting toxicity,15 mg (n=5),2 (40.0) No. (%)
same,Dose modifications (dose adjustment or temporary interruption) because of drug-related TEAEs,48 patients,52.1%
same,Dose modifications because of drug-related hypertension,48 patients,22.9%
same,Drug-related grade 3 diarrhea,48 patients,2.1%
same,Drug-related grade 3 hypertension,48 patients,27.1%
same,Drug-related grade 3 nausea,48 patients,2.1%
same,Drug-related grade 3 palmar-plantar erythrodysesthesia syndrome,48 patients,2.1%
same,Drug-related grade 3 stomatitis,48 patients,4.2%
same,Drug-related grade 4 or 5 TEAEs,48 patients,No drug-related grade 4 or 5 TEAEs were reported
same,Patients with drug-related grade 3 TEAEs,48 patients,43.8%
same,Patients with drug-related serious adverse events,48 patients,14.6%
same,Patients with study drug-related TEAEs,"48 patients, all doses",85.4%
same,Drug-related TEAE diarrhea,"48 patients, any grade",33.3%
same,Drug-related TEAE hypertension,"48 patients, any grade",50.0%
same,Drug-related TEAE nausea,"48 patients, any grade",22.9%
same,Drug-related TEAE palmar-plantar erythrodysesthesia syndrome,"48 patients, any grade",29.2%
same,Drug-related TEAE stomatitis,"48 patients, any grade",29.2%
same,Drug-related TEAE vomiting,"48 patients, any grade",20.8%
same,Maximum tolerated dose (MTD),"Bayesian model, doses 1-15 mg once daily",not reached
same,DLT: Hypertension,Total (n=32),2 (6.3) No. (%)
same,DLT: Palmar-plantar erythrodysesthesia syndrome,Total (n=32),1 (3.1) No. (%)
same,DLT: Skin and subcutaneous tissue disorders,Total (n=32),1 (3.1) No. (%)
same,DLT: Vascular disorders,Total (n=32),2 (6.3) No. (%)
same,Subjects who had a dose-limiting toxicity,Total (n=32),3 (9.4) No. (%)
same,Risk of grade ≥3 hypertension predicted by exposure-response model,all doses,< 25%
same,Patients with AE,combined 12 mg (n=20),20 (100) n (%)
same,Patients with TEAE,combined 12 mg (n=20),20 (100) n (%)
same,Patients with TEAE leading to death,combined 12 mg (n=20),0 n (%)
same,Patients with TEAE leading to dose adjustment/temporary interruption,combined 12 mg (n=20),15 (75.0) n (%)
same,Patients with TEAE leading to study drug permanent discontinuation,combined 12 mg (n=20),3 (15.0) n (%)
same,Patients with grade ≥3 TEAE,combined 12 mg (n=20),14 (70.0) n (%)
same,Patients with study drug-related TEAE,combined 12 mg (n=20),19 (95.0) n (%)
same,Patients with study drug-related TEAE leading to dose adjustment/temporary interruption,combined 12 mg (n=20),13 (65.0) n (%)
same,Patients with study drug-related TEAE leading to study drug permanent discontinuation,combined 12 mg (n=20),1 (5.0) n (%)
same,Patients with study drug-related grade ≥3 TEAE,combined 12 mg (n=20),11 (55.0) n (%)
same,Patients with study drug-related treatment-emergent SAE,combined 12 mg (n=20),3 (15.0) n (%)
same,Patients with treatment-emergent SAE,combined 12 mg (n=20),9 (45.0) n (%)
same,Patients with AE,dose escalation 1 mg (n=1),1 (100) n (%)
same,Patients with TEAE,dose escalation 1 mg (n=1),1 (100) n (%)
same,Patients with TEAE leading to death,dose escalation 1 mg (n=1),0 n (%)
same,Patients with TEAE leading to dose adjustment/temporary interruption,dose escalation 1 mg (n=1),0 n (%)
same,Patients with TEAE leading to study drug permanent discontinuation,dose escalation 1 mg (n=1),0 n (%)
same,Patients with grade ≥3 TEAE,dose escalation 1 mg (n=1),0 n (%)
same,Patients with study drug-related TEAE,dose escalation 1 mg (n=1),0 n (%)
same,Patients with study drug-related TEAE leading to dose adjustment/temporary interruption,dose escalation 1 mg (n=1),0 n (%)
same,Patients with study drug-related TEAE leading to study drug permanent discontinuation,dose escalation 1 mg (n=1),0 n (%)
same,Patients with study drug-related grade ≥3 TEAE,dose escalation 1 mg (n=1),0 n (%)
same,Patients with study drug-related treatment-emergent SAE,dose escalation 1 mg (n=1),0 n (%)
same,Patients with treatment-emergent SAE,dose escalation 1 mg (n=1),0 n (%)
same,Patients with AE,dose escalation 3 mg (n=1),1 (100) n (%)
same,Patients with TEAE,dose escalation 3 mg (n=1),1 (100) n (%)
same,Patients with TEAE leading to death,dose escalation 3 mg (n=1),0 n (%)
same,Patients with TEAE leading to dose adjustment/temporary interruption,dose escalation 3 mg (n=1),0 n (%)
same,Patients with TEAE leading to study drug permanent discontinuation,dose escalation 3 mg (n=1),0 n (%)
same,Patients with grade ≥3 TEAE,dose escalation 3 mg (n=1),0 n (%)
same,Patients with study drug-related TEAE,dose escalation 3 mg (n=1),0 n (%)
same,Patients with study drug-related TEAE leading to dose adjustment/temporary interruption,dose escalation 3 mg (n=1),0 n (%)
same,Patients with study drug-related TEAE leading to study drug permanent discontinuation,dose escalation 3 mg (n=1),0 n (%)
same,Patients with study drug-related grade ≥3 TEAE,dose escalation 3 mg (n=1),0 n (%)
same,Patients with study drug-related treatment-emergent SAE,dose escalation 3 mg (n=1),0 n (%)
same,Patients with treatment-emergent SAE,dose escalation 3 mg (n=1),0 n (%)
same,Patients with AE,dose escalation 5 mg (n=4),4 (100) n (%)
same,Patients with TEAE,dose escalation 5 mg (n=4),4 (100) n (%)
same,Patients with TEAE leading to death,dose escalation 5 mg (n=4),0 n (%)
same,Patients with TEAE leading to dose adjustment/temporary interruption,dose escalation 5 mg (n=4),2 (50.0) n (%)
same,Patients with TEAE leading to study drug permanent discontinuation,dose escalation 5 mg (n=4),0 n (%)
same,Patients with grade ≥3 TEAE,dose escalation 5 mg (n=4),1 (25.0) n (%)
same,Patients with study drug-related TEAE,dose escalation 5 mg (n=4),3 (75.0) n (%)
same,Patients with study drug-related TEAE leading to dose adjustment/temporary interruption,dose escalation 5 mg (n=4),1 (25.0) n (%)
same,Patients with study drug-related TEAE leading to study drug permanent discontinuation,dose escalation 5 mg (n=4),0 n (%)
same,Patients with study drug-related grade ≥3 TEAE,dose escalation 5 mg (n=4),1 (25.0) n (%)
same,Patients with study drug-related treatment-emergent SAE,dose escalation 5 mg (n=4),0 n (%)
same,Patients with treatment-emergent SAE,dose escalation 5 mg (n=4),0 n (%)
same,Patients with AE,dose escalation 8 mg (n=10),9 (90.0) n (%)
same,Patients with TEAE,dose escalation 8 mg (n=10),9 (90.0) n (%)
same,Patients with TEAE leading to death,dose escalation 8 mg (n=10),0 n (%)
same,Patients with TEAE leading to dose adjustment/temporary interruption,dose escalation 8 mg (n=10),5 (50.0) n (%)
same,Patients with TEAE leading to study drug permanent discontinuation,dose escalation 8 mg (n=10),2 (20.0) n (%)
same,Patients with grade ≥3 TEAE,dose escalation 8 mg (n=10),6 (60.0) n (%)
same,Patients with study drug-related TEAE,dose escalation 8 mg (n=10),8 (80.0) n (%)
same,Patients with study drug-related TEAE leading to dose adjustment/temporary interruption,dose escalation 8 mg (n=10),5 (50.0) n (%)
same,Patients with study drug-related TEAE leading to study drug permanent discontinuation,dose escalation 8 mg (n=10),1 (10.0) n (%)
same,Patients with study drug-related grade ≥3 TEAE,dose escalation 8 mg (n=10),4 (40.0) n (%)
same,Patients with study drug-related treatment-emergent SAE,dose escalation 8 mg (n=10),3 (30.0) n (%)
same,Patients with treatment-emergent SAE,dose escalation 8 mg (n=10),5 (50.0) n (%)
same,Patients with AE,dose escalation 10 mg (n=6),6 (100) n (%)
same,Patients with TEAE,dose escalation 10 mg (n=6),6 (100) n (%)
same,Patients with TEAE leading to death,dose escalation 10 mg (n=6),0 n (%)
same,Patients with TEAE leading to dose adjustment/temporary interruption,dose escalation 10 mg (n=6),5 (83.3) n (%)
same,Patients with TEAE leading to study drug permanent discontinuation,dose escalation 10 mg (n=6),4 (66.7) n (%)
same,Patients with grade ≥3 TEAE,dose escalation 10 mg (n=6),5 (83.3) n (%)
same,Patients with study drug-related TEAE,dose escalation 10 mg (n=6),6 (100) n (%)
same,Patients with study drug-related TEAE leading to dose adjustment/temporary interruption,dose escalation 10 mg (n=6),3 (50.0) n (%)
same,Patients with study drug-related TEAE leading to study drug permanent discontinuation,dose escalation 10 mg (n=6),4 (66.7) n (%)
same,Patients with study drug-related grade ≥3 TEAE,dose escalation 10 mg (n=6),2 (33.3) n (%)
same,Patients with study drug-related treatment-emergent SAE,dose escalation 10 mg (n=6),1 (16.7) n (%)
same,Patients with treatment-emergent SAE,dose escalation 10 mg (n=6),4 (66.7) n (%)
same,Patients with AE,dose escalation 12 mg (n=12),12 (100) n (%)
same,Patients with TEAE,dose escalation 12 mg (n=12),12 (100) n (%)
same,Patients with TEAE leading to death,dose escalation 12 mg (n=12),0 n (%)
same,Patients with TEAE leading to dose adjustment/temporary interruption,dose escalation 12 mg (n=12),8 (66.7) n (%)
same,Patients with TEAE leading to study drug permanent discontinuation,dose escalation 12 mg (n=12),3 (25.0) n (%)
same,Patients with grade ≥3 TEAE,dose escalation 12 mg (n=12),9 (75.0) n (%)
same,Patients with study drug-related TEAE,dose escalation 12 mg (n=12),11 (91.7) n (%)
same,Patients with study drug-related TEAE leading to dose adjustment/temporary interruption,dose escalation 12 mg (n=12),6 (50.0) n (%)
